ChEMBL document CHEMBL3393021, “Evaluation and synthesis of polar aryl- and heteroaryl spiroazetidine-piperidine acetamides as ghrelin inverse agonists” (ACS Med Chem Lett, 2015)
Converted amounts (≈) assume the structure as drawn. Blank lines part the entries; values can stand above or below the compound they belong to.

What was measured:
[1] = physchem; details: buffer, pH 7.4
[2] = Oral bioavailability in Wistar Han rat at 5 mg/kg; assay type: ADME, organism-based; details: in vivo
[3] = Kinetic solubility in 2% sodium phosphate buffer at pH 6.5 after 24 hrs; assay type: physicochemical; details: read-out: Kinetic_solubility
[4] = Volume of distribution at steady state in Wistar Han rat at 1 mg/kg, iv or 5 mg/kg, po; assay type: ADME, organism-based; details: in vivo, read-out: Vdss
[5] = Volume of distribution at steady state in […] at 1 mg/kg, iv or 4 mg/kg, po; assay type: ADME, organism-based, Canis lupus familiaris; details: in vivo, read-out: Vdss
[6] = Oral bioavailability in […] at 5 mg/kg; assay type: ADME, organism-based, Macaca fascicularis; details: in vivo
[7] = Oral bioavailability in […] at 4 mg/kg; assay type: ADME, organism-based, Canis lupus familiaris; details: in vivo
[8] = Toxicity in human THLE cells; assay type: cell-based
[9] = Volume of distribution at steady state in […] at 1 mg/kg, iv or 5 mg/kg, po; assay type: ADME, organism-based, Macaca fascicularis; details: in vivo, read-out: Vdss

logD [1]: 1.6
SMILES: COc1ccc(CC(=O)N2CCC3(CC2)CN([C@@H]2CCc4cc(-c5cc(C)ncn5)ccc42)C3)nc1

logD [1]: 2.1
SMILES: Cc1cc(-c2ccc3c(c2)CC[C@H]3N2CC3(CCN(C(=O)Cc4nn(C)c5ncccc45)CC3)C2)ncn1

logD [1]: 2.4
SMILES: COc1ccc(CC(=O)N2CCC3(CC2)CN([C@@H]2CCc4cc(-c5cc(C)ncn5)ccc42)C3)c(C#N)c1

logD [1]: 2.3
SMILES: COc1ccc(OCC(=O)N2CCC3(CC2)CN([C@@H]2CCc4cc(-c5cc(C)ncn5)ccc42)C3)c(C#N)c1

bioavailability [2]: 15%
solubility kinetic at 24 h [3]: 0.185 mg/mL (≈ 352 µM)
Vd [4]: 8.1 L/kg
Vd [5]: 7.3 L/kg
bioavailability [6]: 32%
bioavailability [7]: 67%
logD [1]: 1.4
Vd [9]: 2.2 L/kg
SMILES: COc1ccc(CC(=O)N2CCC3(CC2)CN([C@@H]2CCc4cc(-c5cc(C)ncn5)ccc42)C3)c(C(N)=O)c1
INH [8]: > 248 µM

logD [1]: 1.9
SMILES: COc1ccc(CCC(=O)N2CCC3(CC2)CN([C@@H]2CCc4cc(-c5cc(C)ncn5)ccc42)C3)c(C(N)=O)c1

logD [1]: 1.6
SMILES: COc1ccc(CC(=O)N2CCC3(CC2)CN([C@@H]2CCc4cc(-c5cc(C)ncn5)ccc42)C3)c(NC(C)=O)c1
